The Deep4Chem optical property database
Blank lines part the entries; values can stand above or below the compound they belong to.

Test: solvent given as SMILES

SMILES: CON(OC)c1cc2c3cc(-c4c(C)cc(C)cc4C)cc4c5cc(-c6c(C)cc(C)cc6C)cc6c7cc(B(c8c(C)cc(C)cc8C)c8c(C)cc(C)cc8C)cc8c9cc(-c%10c(C)cc(C)cc%10C)cc%10c%11cc(-c%12c(C)cc(C)cc%12C)cc%12c(c1)c2c1c(c43)c(c65)c(c78)c(c9%10)c1c%11%12
emission maximum (in C1CCOC1): 591 nm
emission maximum (in CC(C)=O): 615 nm
emission maximum (in CCCCCC): 490 nm
emission maximum (in Cc1ccccc1): 510 nm
emission maximum (in ClC(Cl)Cl): 545 nm
emission maximum (in ClCCl): 585 nm

SMILES: CC1(C)c2ccccc2N(c2ccc3c(c2)c2ccccc2c2nc4ccccc4nc32)c2ccccc21
emission maximum (in Cc1ccccc1): 541 nm
emission maximum (in c1cc(-c2cccc(-n3c4ccccc4c4ccccc43)c2)cc(-n2c3ccccc3c3ccccc32)c1): 549 nm

SMILES: Cc1cc(C)c(B(c2cc3ccc4cccc5ccc(c2)c3c45)c2c(C)cc(C)cc2C)c(C)c1
emission maximum (in Cc1ccccc1): 434 nm

SMILES: CCCCn1c2ccc(C#Cc3cccs3)cc2c2c1c1c3ccc(C#Cc4cccs4)cc3n(CCCC)c1c1c3ccc(C#Cc4cccs4)cc3n(CCCC)c21
emission maximum (in C1CCOC1): 430 nm

SMILES: COc1ccc(-c2c3ccc([nH]3)c3nc(c(-c4ccc(C#N)cc4)c4ccc([nH]4)c4ccc([nH]4)c(-c4ccc(OC)cc4)c4ccc2o4)C=C3)cc1
emission maximum (in C1CCOC1): 736 nm
emission maximum (in Cc1ccccc1): 724 nm
emission maximum (in c1ccccc1): 724 nm

SMILES: COc1cc(OC)c2ccc(=O)oc2c1
emission maximum (in CC(C)O): 417 nm
emission maximum (in CCO): 425 nm
emission maximum (in CCOCC): 390 nm
emission maximum (in CO): 432 nm
emission maximum (in O): 450 nm

SMILES: Cc1ccc(-n2cccc2)cc1
emission maximum (in CC#N): 312 nm
emission maximum (in CCCCCC): 310 nm

SMILES: CCC/N=C/c1cc2ccc(N(C)C)cc2cc1OC
emission maximum (in C1CCOC1): 429 nm
emission maximum (in CC#N): 448 nm
emission maximum (in CC(C)O): 547 nm
emission maximum (in CCOC(C)=O): 441 nm
emission maximum (in CN(C)C=O): 449 nm
emission maximum (in CS(C)=O): 456 nm
emission maximum (in Cc1ccccc1): 418 nm
emission maximum (in ClCCl): 434 nm
emission maximum (in O): 556 nm

SMILES: c1ccc(-c2nc(-c3ccccc3)nc(-c3ccc(-n4c5ccccc5c5ccc6c7ccccc7n(-c7ccccc7)c6c54)cc3)n2)cc1
emission maximum (in Cc1ccccc1): 459 nm
emission maximum (in O=P(c1ccccc1)(c1ccccc1)c1ccc2oc3ccc(P(=O)(c4ccccc4)c4ccccc4)cc3c2c1): 477 nm

SMILES: COc1cc(N(c2ccccc2)c2ccc(C=C(C#N)C#N)c(OC)c2)ccc1C=C(C#N)C#N
emission maximum (in C1COCCO1): 520 nm
emission maximum (in CC#N): 571 nm
emission maximum (in CC(C)=O): 562 nm
emission maximum (in CCOC(C)=O): 532 nm
emission maximum (in CN(C)C=O): 576 nm
emission maximum (in CO): 558 nm
emission maximum (in Cc1ccccc1): 500 nm
emission maximum (in ClC(Cl)Cl): 524 nm
emission maximum (in ClCCl): 534 nm

SMILES: CN(C)c1ccc(-c2nc3c(c4c2-c2ccccc2CC4)-c2ccccc2CC3)cc1
emission maximum (in C1CCOC1): 452 nm
emission maximum (in CC#N): 463 nm
emission maximum (in CCCCCC): 422 nm
emission maximum (in CCOC(C)=O): 449 nm
emission maximum (in CO): 460 nm
emission maximum (in CS(C)=O): 470 nm
emission maximum (in Cc1ccccc1): 436 nm
emission maximum (in ClCCl): 449 nm

SMILES: CCCCCCc1ccsc1-c1cc2c3cc(-c4sccc4CCCCCC)c4nc(C(F)(F)C(F)(F)C(F)(F)F)nc5c(-c6sccc6CCCCCC)cc(c6cc(-c7sccc7CCCCCC)c7nc(C(F)(F)C(F)(F)C(F)(F)F)nc1c7c26)c3c45
emission maximum (in C1CCOC1): 627 nm

SMILES: CCCCCCCCc1ccc(-n2c3c4ccccc4nc(-c4ccc(C#N)cc4)c3c3c2c2c(-c4ccc(C#N)cc4)nc4ccccc4c2n3-c2ccc(CCCCCCCC)cc2)cc1
emission maximum (in ClC(Cl)Cl): 510 nm

SMILES: CC(C)(C)c1ccc(-c2ccc(-c3c4c(nc5ccccc35)-c3cc5c(cc3CC4)-c3nc4ccccc4c(-c4ccc(-c6ccc(C(C)(C)C)cc6)cc4)c3CC5)cc2)cc1
emission maximum (in ClC(Cl)Cl): 388 nm

SMILES: Cc1ccc(/C=C/c2ccccc2-[n+]2noc([O-])c2-c2ccccc2)cc1
emission maximum (in C1CCCCC1): 400 nm
emission maximum (in CC#N): 506 nm

SMILES: CC(C)[Si]1(C(C)C)c2cc(N(C)C)ccc2-c2ccc(C(F)(F)F)cc21
emission maximum (in C1CCCCC1): 402 nm
emission maximum (in CC#N): 440 nm
emission maximum (in CCO): 422 nm
emission maximum (in CCOCC): 410 nm
emission maximum (in CS(C)=O): 451 nm
emission maximum (in ClCCl): 423 nm
emission maximum (in c1ccccc1): 410 nm

SMILES: N#Cc1ccc(-c2ccc3c(c2)c2cc(-c4ccc(C#N)cc4)ccc2c2c3nc(-c3ccc(-c4ccc(N(c5ccccc5)c5ccccc5)cc4)cc3)n2-c2ccccc2)cc1
emission maximum (in C1CCOC1): 468.68 nm
emission maximum (in CC#N): 519.93 nm
emission maximum (in CCCCCC): 421.18 nm
emission maximum (in CCOCC): 449.2 nm

SMILES: C1=C(c2ccccc2)B(c2ccccc2)Nc2c1ccc1ccccc21
emission maximum (in C1CCCCC1): 396 nm

SMILES: Cc1ccc(N(c2ccc(C)cc2)c2ccc3c4cccc5c(N(c6ccc(C)cc6)c6ccc(C)cc6)ccc(c6cccc2c63)c54)cc1
emission maximum (in C1CCCCC1): 546 nm
emission maximum (in C1CCOC1): 551 nm
emission maximum (in CC#N): 574 nm
emission maximum (in Cc1ccccc1): 548 nm
emission maximum (in ClCCl): 568 nm

SMILES: COc1ccc(-c2c3ccccc3c(-c3ccc(OC)cc3)c3ccccc23)cc1
emission maximum (in ClCCl): 427 nm

SMILES: CC(C)(C)[Si](C)(C)c1ccc([Si](C)(C)C(C)(C)C)c2ccccc12
emission maximum (in C1CCCCC1): 335 nm

SMILES: CC(C)(C)c1ccc(-c2nc(-c3ccc(-n4c5ccccc5c5c6oc7ccccc7c6ccc54)cc3)nc(-c3ccc(C(C)(C)C)cc3)n2)cc1
emission maximum (in C1CCOC1): 415.2 nm

SMILES: COC(=O)C[C@H](Cc1c[nH]c2ccccc12)NC(=O)[C@H](CC(=O)N[C@@H](CC1=CCc2ccccc21)C(=O)OC)NC(=O)OC(C)(C)C
emission maximum (in CC#N): 332 nm
emission maximum (in CCOC(C)=O): 326 nm
emission maximum (in CO): 337 nm

SMILES: CCCCCCc1ccc2c(/C=N/c3cc(/N=C/c4c(O)ccc5cc(CCCCCC)ccc45)cc(/N=C/c4c(O)ccc5cc(CCCCCC)ccc45)c3)c(O)ccc2c1
emission maximum (in C1CCOC1): 509 nm
emission maximum (in CC#N): 507 nm
emission maximum (in Cc1ccccc1): 507 nm
emission maximum (in ClCCl): 511 nm

SMILES: CCCCCCCCCCCCn1cccc1/C=C/c1ccc(/C=C/c2cccn2CCCCCCCCCCCC)cc1
emission maximum (in Cc1ccccc1): 443 nm

SMILES: Cc1cccc(C2=CC3=C(c4c(C)cc(C)cc4C)c4cc(-c5cccc(C)c5)c(-c5cccc(C)c5)n4[B-](F)(F)[N+]3=C2c2cccc(C)c2)c1
emission maximum (in C1CCCCC1): 625 nm
emission maximum (in C1CCOC1): 626 nm
emission maximum (in CC#N): 620 nm
emission maximum (in Cc1ccccc1): 628 nm
emission maximum (in ClCCl): 627 nm

SMILES: Cc1ccccc1C
emission maximum (in C1CCCCC1): 291.38 nm

SMILES: CCCCC(CC)CN1C(=O)c2cc(Oc3ccc(C(C)(C)C)cc3)c3c4c(Cl)cc5c6c(cc(Cl)c(c7c(Oc8ccc(C(C)(C)C)cc8)cc(c2c37)C1=O)c64)C(=O)N(c1c(C(C)C)cccc1C(C)C)C5=O (stereo unspecified)
emission maximum (in Cc1ccccc1): 606 nm

SMILES: Cc1c(C)c(N2c3ccccc3Oc3ccccc32)c(C)c(C)c1B(c1c(C)c(C)c(N2c3ccccc3Oc3ccccc32)c(C)c1C)c1c(C)c(C)c(N2c3ccccc3Oc3ccccc32)c(C)c1C
emission maximum (in CC(C)(C)c1ccc(-n2c3ccc([Si](c4ccccc4)(c4ccccc4)c4ccccc4)cc3c3cc([Si](c4ccccc4)(c4ccccc4)c4ccccc4)ccc32)cc1): 509 nm

SMILES: N#Cc1c(-n2c3ccc(-c4ccccc4)cc3c3cc(-c4ccccc4)ccc32)c(-n2c3ccccc3c3ccccc32)c(-n2c3ccc(-c4ccccc4)cc3c3cc(-c4ccccc4)ccc32)c(-n2c3ccccc3c3ccccc32)c1-n1c2ccc(-c3ccccc3)cc2c2cc(-c3ccccc3)ccc21
emission maximum (in Cc1ccccc1): 492 nm

SMILES: COc1cc2c3c4c(c5ccc(C(C)(C)C)cc5c5c(OC)c(OC)c(OC)c(c2c(OC)c1OC)c45)=[N+]1C3=Nc2c3c4cc(OC)c(OC)c(OC)c4c4c(OC)c(OC)c(OC)c5c6cc(C(C)(C)C)ccc6c(c3c54)n2[B-]1(F)F
emission maximum (in Cc1ccccc1): 873 nm

SMILES: NS(=O)(=O)c1ccc(N2N=C(c3ccc(O)cc3)CC2c2ccc(Br)cc2)cc1 (stereo unspecified)
emission maximum (in C1CCOC1): 417 nm
emission maximum (in C1COCCO1): 417 nm
emission maximum (in CC#N): 417 nm
emission maximum (in CC(C)O): 423 nm
emission maximum (in CCO): 428 nm
emission maximum (in CCOC(C)=O): 415 nm
emission maximum (in CN(C)C=O): 422 nm
emission maximum (in CO): 432 nm
emission maximum (in CS(C)=O): 424 nm
emission maximum (in O): 449 nm

More lines, now with the values ahead:

emission maximum (in CC#N): 575 nm
emission maximum (in CCO): 581 nm
emission maximum (in CN(C)C=O): 576 nm
emission maximum (in O): 591 nm
SMILES: CCN(CC)c1ccc2c(-c3ccc(S(=O)(=O)O)cc3S(=O)(=O)[O-])c3ccc(=[N+](CC)CC)cc-3oc2c1

emission maximum (in ClCCl): 538 nm
SMILES: CC[B-]1(CC)c2cccc3cc4ccccc4c(c23)-c2cccc(C)[n+]21

emission maximum (in CCO): 430 nm
SMILES: CCOC(=O)/C=C/c1cc2ccc(O)cc2oc1=O

emission maximum (in ClC(Cl)Cl): 398 nm
SMILES: CCCCn1c2ccccc2c2ccc3c4cc(-c5cccc(F)c5)ccc4n(CCCC)c3c21

emission maximum (in ClCCl): 333 nm
SMILES: COc1ccc(-c2cc(-c3ccccc3)nn2C)cc1

emission maximum (in ClCCl): 439 nm
SMILES: CCN(CC)c1ccc2c(c1)oc(=O)c1c(C)nc3c(cnn3-c3ccccc3)c12

emission maximum (in CN(C)C=O): 398 nm
SMILES: Cc1nc2cccc(-c3nc4ccccc4o3)c2c(=O)[nH]1

emission maximum (in ClCCl): 421 nm
SMILES: COC(=O)c1ccc(Oc2ccc3c4c(cccc24)C(=O)N(c2c(C(C)C)cccc2C(C)C)C3=O)cc1

emission maximum (in ClCCl): 474 nm
SMILES: COc1ccc(C#Cc2nc3ccccc3nc2-c2ccn(-c3ccccc3)c2)cc1

emission maximum (in CC#N): 619 nm
emission maximum (in CCCCCC): 583 nm
emission maximum (in CO): 636 nm
SMILES: COc1ccc2c(c1)N(c1ccccc1-c1ccccc1)c1cc3c(cc1=N2)Oc1c(cc(C(C)(C)C)cc1C(C)(C)C)N=3

emission maximum (in ClCCl): 557 nm
SMILES: COc1ccc(N(c2ccc(OC)cc2)c2ccc(-c3ccc(-c4ccc5nc6ccccc6c(=O)n5c4)cc3)cc2)cc1

emission maximum (in ClCCl): 514 nm
SMILES: COc1ccc(-c2c3cc4cc(C)sc4cc3c(-c3ccc(OC)cc3)c3cc4cc(C)sc4cc23)cc1

emission maximum (in CCO): 425 nm
SMILES: COc1cc2c(cc1F)c(=O)c1cc(F)c(OC)cc1n2C(C)C

emission maximum (in CC#N): 436 nm
SMILES: Cc1cc2nc3[nH]c(=O)n(C)c(=O)c3nc2cc1C

emission maximum (in C1CCCCC1): 327 nm
emission maximum (in CC#N): 340 nm
emission maximum (in CO): 344 nm
emission maximum (in O): 350 nm
SMILES: CCOC(=O)COc1ccc(C(c2c(C)[nH]c3ccccc23)c2c(C)[nH]c3ccccc23)cc1

emission maximum (in C1CCCCC1): 329 nm
SMILES: CCCC[Si](C)(C)c1cccc2ccccc12

emission maximum (in c1ccccc1): 440 nm
SMILES: O=c1oc2ccccc2nc1-c1ccc(Cl)cc1
